Measurements reported in US11628171B2, “Method for treating brain or nerve injury” (CHILDREN'S MEDICAL CENTER CORPORATION, priority 2019, dated 2023).

Tested on: retinal ganglion cells
Experiment: Optic nerve injury model ("optic crush" model), retinal ganglion cell survival
Assay type: in vivo
Conditions: male mice, intraocular injection following optic nerve injury, 14 days after injury, compared with PBS control; difference statistically significant (FIG. 1)
Procedure: A PDE1 inhibitory compound was tested in an optic nerve injury model (i.e., the “optic crush” model). The studies described below were carried out using the selective PDE1 inhibitor IC200041, which has the following structure:
In this model, optic nerve surgeries were performed on male mice 8 weeks of age (average body weight, 20-26 g) under general anesthesia, as described previously (Yin Y, et al., Oncomodulin links inflammation to optic nerve regeneration. Proc Natl Acad Sci USA. 2009; 106:19587-19592). Following nerve injury, 3 μl of fluid was removed from the eye and a solution containing the PDE1 inhibitory compound was injected intraocularly.
A total of 4 mouse retinas were treated with the PDE1 inhibitor, and phosphate buffered saline (PBS) was administered to a total of 10 mouse retinas as a control. Mice were typically euthanized with an overdose of anesthesia 14 days after optic nerve injury and were perfused with saline and 4% paraformaldehyde (PFA). These mice were 10 weeks old when killed. Optic nerves and eyes were dissected and postfixed in PFA. […] Axons were counted manually in at least 8 longitudinal sections per case at pre-specified distances from the injury site, and these numbers were converted into the number of regenerating axons at various distances.

CN1C(=O)c2c(nn(Cc3ccc(-c4ccccn4)cc3)c2Nc2ccccc2)N2C1=N[C@@H]1CCC[C@@H]12 [IC200041]
survival of retinal ganglion cells: highly effective in increasing the survival of retinal ganglion cells
